This is an account of results in PubChem BioAssay (NCI).

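Five compound concentrations were applied to cells in 96-well plates for 48 hours; endpoints were derived by simple linear interpolation of the resulting dose-response curve. TGI: total growth inhibition.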

Some test systems named below: HCT-15 colon; HOP-92 NSCLC; HT29 colon; MDA-MB-435; NCI-H23 lung; NCI/ADR-RES ovarian; OVCAR-5 ovarian; RXF 393 renal; T-47D breast; SNB-75 CNS.
What all share (assay): NCI tumour cell line growth inhibition, 48 h

Take `Cc1ccc(/C=C2\CN(C)CC3C(c4ccc(C)cc4)=C(C#N)C(=O)NC23)cc1` (stereo unspecified): the TGI with HCT-15 colon, with HOP-92 NSCLC, in the assay with HT29 colon, in the assay with MDA-MB-435, in the assay on NCI-H23 lung and with NCI/ADR-RES ovarian was above 50 µM throughout. Moreover, the TGI with OVCAR-5 ovarian, in the assay on RXF 393 renal and in the assay on T-47D breast was above 50 µM each time.

Regarding `CCOc1cc(/C=N\N(C)C)cc(/C=N\N(C)C)c1O`, the TGI was above 100 µM in the assay with HCT-15 colon; 49.7 µM in the assay on HOP-92 NSCLC; above 100 µM in the assay with HT29 colon; above 100 µM with MDA-MB-435; above 100 µM in the assay on NCI-H23 lung; above 100 µM in the assay with NCI/ADR-RES ovarian. Besides, the TGI is above 100 µM in the assay with OVCAR-5 ovarian, 77.7 µM with SNB-75 CNS and above 100 µM in the assay with T-47D breast.

Turning to `ClC(Cl)(Cl)C1CCOC1n1nc2ccccc2n1` (stereo unspecified), the TGI in the assay with HCT-15 colon, in the assay on HT29 colon, in the assay with MDA-MB-435, in the assay on NCI-H23 lung, in the assay on NCI/ADR-RES ovarian and in the assay on OVCAR-5 ovarian was above 100 µM in each case. Besides, the TGI with RXF 393 renal, in the assay on SNB-75 CNS and in the assay on T-47D breast was above 100 µM in each case.

For `N=C(/C=C/c1ccc(-c2cn3cc(/C=C/C(=N)N4CCCC4)ccc3n2)cc1)N1CCCC1`, the TGI with HCT-15 colon, in the assay on HOP-92 NSCLC, with MDA-MB-435, with NCI-H23 lung, in the assay on NCI/ADR-RES ovarian and in the assay with OVCAR-5 ovarian was above 100 µM in each case. The TGI in the assay on RXF 393 renal, with SNB-75 CNS and with T-47D breast was above 100 µM in each case.

Regarding `CC(=O)OCCC1c2ccccc2-n2nc(-c3ccccc3)c(O)c21` (stereo unspecified), the TGI is 55.1 µM with HCT-15 colon; 27.4 µM with HOP-92 NSCLC; 42.4 µM in the assay on HT29 colon; 32.3 µM with MDA-MB-435; 34.5 µM in the assay with NCI-H23 lung; 47 µM in the assay with NCI/ADR-RES ovarian. Besides, the TGI is 38.7 µM in the assay with OVCAR-5 ovarian, 26 µM in the assay on RXF 393 renal and 37.7 µM in the assay on SNB-75 CNS.

Regarding `COCCOCN(C(=O)C1=CCC2(CC1)OCCO2)c1ccccc1I`, the TGI in the assay on HCT-15 colon, in the assay with HOP-92 NSCLC, in the assay on HT29 colon, in the assay with MDA-MB-435, in the assay on NCI-H23 lung and in the assay with NCI/ADR-RES ovarian was above 50 µM throughout. The TGI with OVCAR-5 ovarian, in the assay with SNB-75 CNS and with T-47D breast was above 50 µM throughout.

Take `Cc1cc2nc(N3C(=O)/C(=C/c4cccc([N+](=O)[O-])c4)N=C3c3ccccc3)sc2cc1C`: the TGI in the assay on HCT-15 colon was above 100 µM; in the assay with HOP-92 NSCLC, 58.2 µM; with HT29 colon it was 75.9 µM; with MDA-MB-435, 36.5 µM; in the assay on NCI/ADR-RES ovarian it was above 100 µM; in the assay with OVCAR-5 ovarian, above 100 µM. Further, the TGI is 58 µM in the assay with RXF 393 renal, 33.2 µM in the assay on SNB-75 CNS and above 100 µM in the assay on T-47D breast.

As for `O=C(O)CCC(NC(=O)c1ccc(Nc2nc3ccccc3nc2C(=O)O)cc1)C(=O)O` (stereo unspecified), the TGI in the assay on HOP-92 NSCLC, with HT29 colon, in the assay with MDA-MB-435, in the assay with NCI-H23 lung, in the assay with NCI/ADR-RES ovarian and with OVCAR-5 ovarian was above 100 µM in each case. The TGI in the assay on SNB-75 CNS and in the assay on T-47D breast was above 100 µM in each case.

`O=[N+]([O-])c1ccc(Cl)cc1-n1nc(-c2ccccc2)cc1-c1ccccc1`: the TGI in the assay with HCT-15 colon, in the assay on HOP-92 NSCLC, with HT29 colon, in the assay on MDA-MB-435, in the assay on NCI-H23 lung and in the assay with NCI/ADR-RES ovarian was above 100 µM each time. Besides, the TGI in the assay on OVCAR-5 ovarian, in the assay with SNB-75 CNS and in the assay with T-47D breast was above 100 µM throughout.

As for `N#Cc1ncn(-c2ccccc2)c1N`, the TGI in the assay with HCT-15 colon, in the assay with HT29 colon, in the assay with MDA-MB-435, with NCI-H23 lung, with NCI/ADR-RES ovarian and in the assay on OVCAR-5 ovarian was above 100 µM throughout. Further, the TGI in the assay with SNB-75 CNS and with T-47D breast was above 100 µM throughout.

In the case of `CSC(SC)=C1C(=O)NN=C1C`, the TGI with HCT-15 colon, in the assay on HOP-92 NSCLC, in the assay on HT29 colon, with MDA-MB-435, in the assay on NCI-H23 lung and with OVCAR-5 ovarian was above 100 µM throughout. In addition, the TGI in the assay on RXF 393 renal and in the assay on T-47D breast was above 100 µM throughout.

Turning to `CC1=C2C(=O)O[C@@H](c3ccoc3)[C@]2(C)CCC1=O`, the TGI with HCT-15 colon, in the assay on HOP-92 NSCLC, in the assay with MDA-MB-435, in the assay on NCI-H23 lung, in the assay on NCI/ADR-RES ovarian and in the assay on OVCAR-5 ovarian was above 100 µM each time. Moreover, the TGI in the assay on SNB-75 CNS and with T-47D breast was above 100 µM in each case.

`Cc1cc(S(N)(=O)=O)c(SCc2nc(N)nc(N(C)C)n2)cc1Cl`: the TGI in the assay with HCT-15 colon, with HOP-92 NSCLC, with HT29 colon, in the assay on NCI-H23 lung, in the assay with NCI/ADR-RES ovarian and in the assay with OVCAR-5 ovarian was above 10 µM each time. The TGI with RXF 393 renal, with SNB-75 CNS and in the assay on T-47D breast was above 10 µM each time.

As to `COC(=O)[C@@H]1C=C[C@@H](C#N)n2c(=O)n(-c3ccccc3)c(=O)n21`, the TGI in the assay with HCT-15 colon was above 100 µM; in the assay on HOP-92 NSCLC, above 100 µM; in the assay on HT29 colon, 93.2 µM; with MDA-MB-435 it was above 100 µM; in the assay on NCI-H23 lung, above 100 µM; in the assay with NCI/ADR-RES ovarian it was 68 µM. Moreover, the figures for the TGI with OVCAR-5 ovarian, in the assay with SNB-75 CNS and with T-47D breast were above 100 µM, 79 µM and 94.1 µM, respectively.

In the case of `CN(C)CCOc1ccc(I)cc1Cc1ccccc1`, the TGI was 25.1 µM in the assay with HCT-15 colon; 17 µM in the assay with HT29 colon; 15.4 µM with MDA-MB-435; 12.6 µM in the assay with NCI-H23 lung; 29.8 µM in the assay on NCI/ADR-RES ovarian; 29.7 µM in the assay with OVCAR-5 ovarian. Further, the TGI in the assay with RXF 393 renal came out at 32.5 µM; in the assay on SNB-75 CNS, 6.79 µM; with T-47D breast it was 16.2 µM.
